16 compounds from patent US12540136B2, “Pyrrolopyridine derivative and use thereof” (ST PHARM CO., LTD., priority 2020, dated 2026) can be followed below.

Holding throughout (format): cell-based
Series [1] can be described thus: Cytotoxicity, MTS dye reduction assay. The note with it: human; MT-4 cells, MTS dye reduction, 6 days incubation; read-out: CC50, HIV-1(NL4-3) in MT-4 Cells. Here is the method: (§1) In order to determine the HIV-1 (Wild type) inhibitory effect of compounds of the present invention, a test was conducted as follows. The host cell was MT-4 cells and the virus strain was NL4-3 strain of HIV-1. The virus and cells were mixed in the presence of the compounds of the present invention, followed by incubation for 6 days. The antiviral effect was measured as a percentage decrease in viral cytopathic effect (CPE), and the cytotoxicity of the compounds was evaluated by MTS (CellTiter® 96 Reagent, Promega, Madison WI) dye reduction assay. 1.
For orientation: Formazan colour is commonly taken as a measure of viable cells.

The subject of a further series is HIV-1 (NL4-3). In words: HIV-1 (wild type) inhibitory effect, decrease in viral cytopathic effect (CPE) in MT-4 cells. The settings on record: Human immunodeficiency virus 1, NL43, MT4, 144 h; NL4-3 strain, MT-4 host cells, 6 days incubation, CPE reduction. Here is the method: as §1
A general note: Damage to the host cells serves as the signal in cytopathic effect assays.

For the next series, the system named is MT-4 cells. As to the kind of experiment: Cytotoxicity, MTS dye reduction assay. The protocol: as §1

Where two headings read alike, the source gives them in different places.

Take `CCCCCCCCCCCCCOC(=O)[C@@H](OC(C)(C)C)c1c(C)nc2c(c(C)c(C)n2Cc2cnn(C)c2)c1-c1ccc(Cl)cc1` [Example 1, Tridecyl (S)-2-(tert-butoxy)-2-(4-(4-chlorophenyl)-2,3,6-trimethyl-1-((1-methyl-1H-pyrazol-4-yl)methyl)-1H-pyrrolo[2,3-b]pyridin-5-yl)acetate]: in series [1], the CC50 (in general, the concentration at which the toxic effect on the cells reaches its halfway point) at 6 days is over 10 µM. Moreover, in the series on HIV-1 (NL4-3), the EC50 (as a rule, the concentration giving half of the maximal effect) is over 10 µM. `Cc1nc2c(c(C)c(C)n2CC2CCO2)c(-c2ccc(Cl)cc2)c1[C@H](OC(C)(C)C)C(=O)OCc1oc(=O)oc1C` (stereo partly drawn) [Example 2, (5-Methyl-2-oxo-1,3-dioxol-4-yl)methyl (2S)-2-(tert-butoxy)-2-(4-(4-chlorophenyl)-2,3,6-trimethyl-1-(oxetan-2-ylmethyl)-1H-pyrrolo[2,3-b]pyridin-5-yl)acetate]: the CC50 at 6 days in series [1] was over 10 µM. Also, the EC50 with HIV-1 (NL4-3) was determined as 0.12 µM. For `COCCn1c(C)c(C)c2c(-c3ccc(Cl)cc3)c([C@H](OC(C)(C)C)C(=O)OCc3oc(=O)oc3C)c(C)nc21` [Example 3, (5-Methyl-2-oxo-1,3-dioxol-4-yl)methyl (S)-2-(tert-butoxy)-2-(4-(4-chlorophenyl)-1-(2-methoxyethyl)-2,3,6-trimethyl-1H-pyrrolo[2,3-b]pyridin-5-yl)acetate], the CC50 at 6 days in series [1] was over 10 µM. For the same compound, in the series with HIV-1 (NL4-3), the EC50 is 0.0227 µM. As to `Cc1nc2c(c(C)c(C)n2Cc2cnn(C)c2)c(-c2ccc(Cl)cc2)c1[C@H](OC(C)(C)C)C(=O)OCc1oc(=O)oc1C` [Example 4, (5-Methyl-2-oxo-1,3-dioxol-4-yl)methyl (S)-2-(tert-butoxy)-2-(4-(4-chlorophenyl)-2,3,6-trimethyl-1-((1-methyl-1H-pyrazol-4-yl)methyl)-1H-pyrrolo[2,3-b]pyridin-5-yl)acetate], the CC50 at 6 days in series [1] was over 10 µM. This compound registered an EC50 with HIV-1 (NL4-3) of 0.00527 µM. The matching figures for `Cc1nc2c(c(C)c(C)n2Cc2cnn(C)c2)c(-c2ccc(Cl)cc2)c1[C@H](OC(C)(C)C)C(N)=O` [Example 5, (S)-2-(tert-butoxy)-2-(4-(4-chlorophenyl)-2,3,6-trimethyl-1-((1-methyl-1H-pyrazol-4-yl)methyl)-1H-pyrrolo[2,3-b]pyridin-5-yl)acetamide]: over 10 µM and over 10 µM. The matching figures for `Cc1nc2c(c(C)c(C)n2Cc2cnn(C)c2)c(-c2ccc(Cl)cc2)c1[C@@H](C#N)OC(C)(C)C` [Example 6, (S)-2-(tert-butoxy)-2-(4-(4-chlorophenyl)-2,3,6-trimethyl-1-((1-methyl-1H-pyrazol-4-yl)methyl)-1H-pyrrolo[2,3-b]pyridin-5-yl)acetonitrile]: over 10 µM and over 10 µM.

As for `Cc1nc2c(c(C)c(C)n2Cc2cnn(C)c2)c(-c2ccc(Cl)cc2)c1[C@H](OC(C)(C)C)c1nnn[nH]1` [Example 7, (S)-5-(tert-butoxy(1H-tetrazol-5-yl)methyl)-4-(4-chlorophenyl)-2,3,6-trimethyl-1-((1-methyl-1H-pyrazol-4-yl)methyl)-1H-pyrrolo[2,3-b]pyridine], the CC50 at 6 days in series [1] is over 10 µM. This compound also gave an EC50 in the series on HIV-1 (NL4-3) of 0.361 µM. As to `CNC(=O)[C@@H](OC(C)(C)C)c1c(C)nc2c(c(C)c(C)n2Cc2cnn(C)c2)c1-c1ccc(Cl)cc1` [Example 8, (S)-2-(tert-butoxy)-2-(4-(4-chlorophenyl)-2,3,6-trimethyl-1-((1-methyl-1H-pyrazol-4-yl)methyl)-1H-pyrrolo[2,3-b]pyridin-5-yl)-N-methylacetamide], the CC50 at 6 days in series [1] was 4.98 µM. Still for that read-out and setting: under `CONC(=O)[C@@H](OC(C)(C)C)c1c(C)nc2c(c(C)c(C)n2Cc2cnn(C)c2)c1-c1ccc(Cl)cc1` [Example 9, (S)-2-(tert-butoxy)-2-(4-(4-chlorophenyl)-2,3,6-trimethyl-1-((1-methyl-1H-pyrazol-4-yl)methyl)-1H-pyrrolo[2,3-b]pyridin-5-yl)-N-methoxyacetamide] stands 8.89 µM. Regarding `CON(C)C(=O)[C@@H](OC(C)(C)C)c1c(C)nc2c(c(C)c(C)n2Cc2cnn(C)c2)c1-c1ccc(Cl)cc1` [Example 10, (S)-2-(tert-butoxy)-2-(4-(4-chlorophenyl)-2,3,6-trimethyl-1-((1-methyl-1H-pyrazol-4-yl)methyl)-1H-pyrrolo[2,3-b]pyridin-5-yl)-N-methoxy-N-methylacetamide], in series [1], the CC50 at 6 days was over 10 µM. Moreover, in the series with HIV-1 (NL4-3), the EC50 was over 10 µM. As for `Cc1nc2c(c(C)c(C)n2Cc2cnn(C)c2)c(-c2ccc(Cl)cc2)c1[C@H](OC(C)(C)C)C(=O)NO` [Example 11, (S)-2-(tert-butoxy)-2-(4-(4-chlorophenyl)-2,3,6-trimethyl-1-((1-methyl-1H-pyrazol-4-yl)methyl)-1H-pyrrolo[2,3-b]pyridin-5-yl)-N-hydroxyacetamide], the CC50 at 6 days in series [1] was determined as 3.16 µM. `Cc1nc2c(c(C)c(C)n2Cc2cnn(C)c2)c(-c2ccc(Cl)cc2)c1[C@H](OC(C)(C)C)/C(N)=N/O` [Example 12, (S,Z)-2-(tert-butoxy)-2-(4-(4-chlorophenyl)-2,3,6-trimethyl-1-((1-methyl-1H-pyrazol-4-yl)methyl)-1H-pyrrole[2,3-b]pyridin-5-yl)-N′-hydroxyacetimidamide]: the CC50 with MT-4 cells (MT-4 cells, MTS dye reduction, 6 days incubation, read-out: CC50, HIV-1(NL4-3) in MT-4 Cells) is over 10 µM. For the compound `Cc1nc([C@@H](OC(C)(C)C)c2c(C)nc3c(c(C)c(C)n3Cc3cnn(C)c3)c2-c2ccc(Cl)cc2)no1` [Example 13, (S)-3-(tert-butoxy (4-(4-chlorophenyl)-2,3,6-trimethyl-1-((1-methyl-1-1H-pyrazol-4-yl)methyl)-1H-pyrrolo[2,3-b]pyridin-5-yl)methyl)-5-methyl-1,2,4-oxadiazole], in the series on MT-4 cells, the CC50 was over 10 µM.

Regarding `Cc1nc2c(c(C)c(C)n2Cc2cnn(C)c2)c(-c2ccc(Cl)cc2)c1[C@H](OC(C)(C)C)C(=O)Nc1nn[nH]n1` [Example 14, (S)-2-(tert-butoxy)-2-(4-(4-chlorophenyl)-2,3,6-trimethyl-1-((1-methyl-1H-pyrazol-4-yl)methyl)-1H-pyrrolo[2,3-b]pyridin-5-yl)-N-(2H-tetrazol-5-yl)acetamide], in series [1], the CC50 at 6 days is over 10 µM. The EC50 with HIV-1 (NL4-3) was over 10 µM. Regarding `COC(=O)OCOC(=O)[C@@H](OC(C)(C)C)c1c(C)nc2c(c(C)c(C)n2Cc2cnn(C)c2)c1-c1ccc(Cl)cc1` [Example 15, ((Methoxycarbonyl)oxy)methyl (S)-2-(tert-butoxy)-2-(4-(4-chlorophenyl)-2,3,6-trimethyl-1-((1-methyl-1H-pyrazol-4-yl)methyl)-1H-pyrrolo[2,3-b]pyridin-5-yl)acetate], the CC50 at 6 days in series [1] was over 10 µM. Further, the EC50 in the series on HIV-1 (NL4-3) worked out at 0.0316 µM. As for `COCCOCCOC(=O)[C@@H](OC(C)(C)C)c1c(C)nc2c(c(C)c(C)n2Cc2cnn(C)c2)c1-c1ccc(Cl)cc1` [Example 16, 2-(2-Methoxyethoxy)ethyl (S)-2-(tert-butoxy)-2-(4-(4-chlorophenyl)-2,3,6-trimethyl-1-((1-methyl-1H-pyrazol-4-yl)methyl)-1H-pyrrolo[2,3-b]pyridin-5-yl)acetate], the CC50 at 6 days in series [1] is over 10 µM. In the series with HIV-1 (NL4-3), this compound yielded an EC50 of over 10 µM.
